# Experimental data taken from patent publication US20260137806A1, “INTERCALATING SUGAR MOLECULES” (Xalud Therapeutics, Inc., priority 2022, published 2026).
# Several values for one entry are separate records, joined by “and”; a condition that tells them apart may be missing. Equal entries are not always repeated.
# Tests used:
# [1] = system: NR8383 rat alveolar macrophages; experiment: Cellular delivery: pDNA uptake (ddPCR); format: cell-based; details: LPS-activated NR8383; for pDNA copies per μL cell suspension: D-mannose plus pDNA
# Experimental: The cell line used was NR8383 rat alveolar macrophages, which grow as a mixture of suspended and adherent cells. The culture medium was F-12K Medium+15% FBS. The cells were plated in a 24-well format at a seeding density of 4-6×10^5 cells/mL into the wells of a 24-well plate. All conditions were performed in duplicate. The testing conditions used NR8383 cells in both unactivated and activated states. […] Activated macrophages are characteristic of macrophages found in inflammatory disease states. […] Either 0, 1, or 2 μg pDNA was used per well, with or without mannose. The combination of pDNA minus D-mannose serves as pDNA control for all conditions. The combination of pDNA with uncomplexed Mannoquin 38 was completed by adding separate pDNA and Mannoquin 38 solutions to culture. Also, pDNA with complexed Mannoquin 38 were studied wherein pre-incubated pDNA and Mannoquin 38 solutions were added to the culture. Lipofectamine 2000 transfections per manufacturer's instructions was used as a positive control. Separate confirmation of successful transfection with Lipofectamine 2000 has been confirmed. The pDNA solution used was 40 μg/mL pDNA in PBS (herein after “Working pDNA solution”). […] For studies with no pDNA, 100 μL of 1×PBS was added to the appropriate culture wells. For plasmid-only conditions, to the appropriate culture wells, 100 μL of DNA solutions was added, wherein the solution was 50 μL of Working pDNA solution+150 μL of 1×PBS (1 μg pDNA) or 100 μL of Working pDNA solution+100 μL of 1×PBS (2 μg pDNA). For non-complexed test agent conditions, to the appropriate culture wells, 50 μL of each separately prepared solution was added: DNA solution (0, 25, or 50 μL Working pDNA solution+100, 75, or 50 μL 1×PBS, respectively) or test agent solution (25, 25, or 50 μL Test Agent Working solution+75, 75, or 50 μL 1×PBS, respectively). […] PCR reaction was performed and read according to the manufacturer's protocol.
# [2] = Kinetic solubility measurements; details: aqueous buffer, kinetic from dmso stock
# DNA plasmid = experiment: Quinacrine-DNA binding saturation (absorbance titration); details: 4 mM or 8 mM phosphate/citrate buffer; FIG. 3
# Experimental: FIG. 2 is a wavelength versus absorbance graph used to study quinacrine-DNA binding. Quinacrine concentrations were held constant under low ionic conditions (10 mM Na^+), and DNA plasmid was titrated. Absorbance was measured at 260 nm (DNA absorbance), 424 nm (quinacrine absorbance), 445 nm (quinacrine absorbance), and 461 nm (isobestic point).
# FIG. 3 is a plasmid:quinacrine ratio versus absorbance graph used to study quinacrine-DNA binding saturation. The recovery of absorbance (marked with an arrow) indicates saturation. Saturation occurred at a plasmid/quinacrine ratio of 8 in 4 mM or 8 mM phosphate/citrate buffer.
smiles,measurement,setting,value
O=C[C@@H](O)[C@@H](O)[C@H](O)[C@H](O)CO [D-mannose],pDNA copies per μL cell suspension,[1]; 1 μg pDNA,68 copies per μL cell suspension
same,pDNA copies per μL cell suspension,[1]; 2 μg pDNA,68.4 copies per μL cell suspension
same,dose-dependency of uptake based on pDNA level,"[1]; agent plus pDNA, not complexed",no dose-dependency
C[C@]12CC[C@H]3[C@@H](CCC4=CC(=O)CC[C@@]43C)[C@@H]1CC[C@@H]2O [Testosterone],solubility at 4 h,[2],40 µM and 12 µg/mL
CCN(CC)CCCC(C)Nc1c2ccc(Cl)cc2nc2ccc(OC)cc12 (centres unmarked) [quinacrine],plasmid/quinacrine ratio at saturation,DNA plasmid,8
